{
  "source": "patent US12325706B2",
  "about": "“Polymorphic form of sepiapterin” (PTC Therapeutics MP, Inc., priority 2016, dated 2025)",
  "key": {"[1]": {"assay": "Storage stability of sepiapterin polymorph forms, HPLC purity", "type": "physicochemical", "set-up": "Impurity RRT 1.06 (HPLC) / Impurity RRT 1.08 (HPLC) / Impurity RRT 1.17 (HPLC) / Impurity RRT 1.21 (HPLC) / Impurity RRT 1.25 (HPLC) / Impurity RRT 0.62 (HPLC) / Impurity RRT 0.89 (HPLC) / Impurity RRT 0.95 (HPLC) / Impurity RRT 0.60 (HPLC): unit not given here", "conditions": "for % of Initial / Purity (area %): 10% RH", "protocol": "(§1) Form A and F samples were placed in chambers with silica gel to remove water (the relative humidity was measured to be ˜10% RH) at different temperatures. Form D samples were placed in chambers with water (relative humidity was estimated to be ˜100% RH) at different temperatures.\n(§2) The HPLC purities and XRD patterns were obtained for each of Form A/F/D samples stored at various temperatures.\nSamples of sepiapterin free base polymorph Forms D, F, and A were stored at room temperature (RT), 35° C., and 50° C. The samples were analyzed by HPLC at 1 week and 4 week intervals."}, "[2]": {"assay": "Storage stability of sepiapterin polymorph forms, form change by XRD", "type": "physicochemical", "conditions": "10% RH", "protocol": "as §1, §2"}, "[3]": {"conditions": "35° C./10% RH, 1 w, listed as Polymorph F"}, "[4]": {"conditions": "35° C./10% RH, 4 w, listed as Polymorph F"}, "[5]": {"conditions": "50° C./10% RH, 1 w, listed as Polymorph F"}, "[6]": {"conditions": "50° C./10% RH, 4 w, listed as Polymorph F"}, "[7]": {"conditions": "RT/10% RH, 1 w, listed as Polymorph F"}, "[8]": {"conditions": "RT/10% RH, 4 w, listed as Polymorph F"}},
  "data": [
    {"smiles": "C[C@H](O)C(=O)C1=Nc2c(nc(N)[nH]c2=O)NC1", "note": "[Form F, sepiapterin]", "values": [
      {"measurement": "Impurity RRT 0.60 (HPLC)", "setting": "[1]; 35° C./10% RH, 1 w", "value": "<0.05"},
      {"measurement": "Impurity RRT 0.95 (HPLC)", "setting": "[1]; [3]", "value": 0.35},
      {"measurement": "Impurity RRT 1.08 (HPLC)", "setting": "[1]; [3]", "value": 0.06},
      {"measurement": "Impurity RRT 1.17 (HPLC)", "setting": "[1]; [3]", "value": 0.15},
      {"measurement": "Sepiapterin RRT 1.00 (HPLC), amount of sepiapterin", "setting": "[1]; [3]", "value": 99.43, "unit": "%"},
      {"measurement": "Impurity RRT 0.60 (HPLC)", "setting": "[1]; 35° C./10% RH, 4 w", "value": "<0.05"},
      {"measurement": "Impurity RRT 1.08 (HPLC)", "setting": "[1]; 35° C./10% RH, 4 w", "value": "<0.05"},
      {"measurement": "Impurity RRT 0.95 (HPLC)", "setting": "[1]; [4]", "value": 0.42},
      {"measurement": "Impurity RRT 1.17 (HPLC)", "setting": "[1]; [4]", "value": 0.15},
      {"measurement": "Sepiapterin RRT 1.00 (HPLC), amount of sepiapterin", "setting": "[1]; [4]", "value": 99.43, "unit": "%"},
      {"measurement": "Impurity RRT 0.60 (HPLC)", "setting": "[1]; 50° C./10% RH, 1 w", "value": "<0.05"},
      {"measurement": "Impurity RRT 0.95 (HPLC)", "setting": "[1]; [5]", "value": 0.58},
      {"measurement": "Impurity RRT 1.08 (HPLC)", "setting": "[1]; [5]", "value": 0.11},
      {"measurement": "Impurity RRT 1.17 (HPLC)", "setting": "[1]; [5]", "value": 0.15},
      {"measurement": "Sepiapterin RRT 1.00 (HPLC), amount of sepiapterin", "setting": "[1]; [5]", "value": 99.15, "unit": "%"},
      {"measurement": "Impurity RRT 0.60 (HPLC)", "setting": "[1]; 50° C./10% RH, 4 w", "value": 0.12},
      {"measurement": "Impurity RRT 1.17 (HPLC)", "setting": "[1]; 50° C./10% RH, 4 w", "value": 0.17},
      {"measurement": "Impurity RRT 0.95 (HPLC)", "setting": "[1]; [6]", "value": 0.86},
      {"measurement": "Impurity RRT 1.08 (HPLC)", "setting": "[1]; [6]", "value": "<0.05"},
      {"measurement": "Sepiapterin RRT 1.00 (HPLC), amount of sepiapterin", "setting": "[1]; [6]", "value": 98.85, "unit": "%"},
      {"measurement": "Sepiapterin RRT 1.00 (HPLC), amount of sepiapterin", "setting": "[1]; 50° C./10% RH, 4 w, listed as polymorph F", "value": 98.85, "unit": "%"},
      {"measurement": "Impurity RRT 0.60 (HPLC)", "setting": "[1]; Initial", "value": "<0.05"},
      {"measurement": "Impurity RRT 1.08 (HPLC)", "setting": "[1]; Initial", "value": "<0.05"},
      {"measurement": "Impurity RRT 1.17 (HPLC)", "setting": "[1]; Initial", "value": 0.17},
      {"measurement": "Impurity RRT 0.95 (HPLC)", "setting": "[1]; Initial, listed as Polymorph F", "value": 0.09},
      {"measurement": "Sepiapterin RRT 1.00 (HPLC), amount of sepiapterin", "setting": "[1]; Initial, listed as Polymorph F", "value": 99.74, "unit": "%"},
      {"measurement": "Sepiapterin RRT 1.00 (HPLC), amount of sepiapterin", "setting": "[1]; Initial, listed as polymorph F", "value": 99.74, "unit": "%"},
      {"measurement": "Impurity RRT 0.60 (HPLC)", "setting": "[1]; RT/10% RH, 1 w", "value": "<0.05"},
      {"measurement": "Impurity RRT 1.17 (HPLC)", "setting": "[1]; RT/10% RH, 1 w", "value": 0.16},
      {"measurement": "Impurity RRT 0.95 (HPLC)", "setting": "[1]; [7]", "value": 0.29},
      {"measurement": "Impurity RRT 1.08 (HPLC)", "setting": "[1]; [7]", "value": 0.14},
      {"measurement": "Sepiapterin RRT 1.00 (HPLC), amount of sepiapterin", "setting": "[1]; [7]", "value": 99.42, "unit": "%"},
      {"measurement": "Impurity RRT 0.60 (HPLC)", "setting": "[1]; RT/10% RH, 4 w", "value": "<0.05"},
      {"measurement": "Impurity RRT 1.08 (HPLC)", "setting": "[1]; RT/10% RH, 4 w", "value": "<0.05"},
      {"measurement": "Impurity RRT 1.17 (HPLC)", "setting": "[1]; RT/10% RH, 4 w", "value": 0.16},
      {"measurement": "Impurity RRT 0.95 (HPLC)", "setting": "[1]; [8]", "value": 0.30},
      {"measurement": "Sepiapterin RRT 1.00 (HPLC), amount of sepiapterin", "setting": "[1]; [8]", "value": 99.54, "unit": "%"},
      {"measurement": "Purity of initial samples by HPLC", "setting": "[1]; initial, before storage", "value": 99.7, "unit": "area %"},
      {"measurement": "% of Initial", "setting": "[1]; storage 1 week, 35° C.", "value": 99.7, "unit": "%"},
      {"measurement": "Purity (area %)", "setting": "[1]; storage 1 week, 35° C.", "value": 99.4, "unit": "area %"},
      {"measurement": "% of Initial", "setting": "[1]; storage 1 week, 50° C.", "value": 99.4, "unit": "%"},
      {"measurement": "Purity (area %)", "setting": "[1]; storage 1 week, 50° C.", "value": 99.2, "unit": "area %"},
      {"measurement": "% of Initial", "setting": "[1]; storage 1 week, RT", "value": 99.7, "unit": "%"},
      {"measurement": "Purity (area %)", "setting": "[1]; storage 1 week, RT", "value": 99.4, "unit": "area %"},
      {"measurement": "% of Initial", "setting": "[1]; storage 4 weeks, 35° C.", "value": 99.7, "unit": "%"},
      {"measurement": "Purity (area %)", "setting": "[1]; storage 4 weeks, 35° C.", "value": 99.4, "unit": "area %"},
      {"measurement": "% of Initial", "setting": "[1]; storage 4 weeks, 50° C.", "value": 99.1, "unit": "%"},
      {"measurement": "Purity (area %)", "setting": "[1]; storage 4 weeks, 50° C.", "value": 98.9, "unit": "area %"},
      {"measurement": "% of Initial", "setting": "[1]; storage 4 weeks, RT", "value": 99.8, "unit": "%"},
      {"measurement": "Purity (area %)", "setting": "[1]; storage 4 weeks, RT", "value": 99.5, "unit": "area %"},
      {"measurement": "Stability on storage as determined by HPLC, comparison of forms in words", "setting": "[1]; storage up to 4 weeks at RT, 35° C., 50° C., listed as polymorph F", "value": "significantly greater stability than polymorph A"},
      {"measurement": "Form change", "setting": "[2]; storage 1 week, 35° C.", "value": "No"},
      {"measurement": "Form change", "setting": "[2]; storage 1 week, 50° C.", "value": "No"},
      {"measurement": "Form change", "setting": "[2]; storage 1 week, RT", "value": "No"},
      {"measurement": "Form change", "setting": "[2]; storage 4 weeks, 35° C.", "value": "No"},
      {"measurement": "Form change", "setting": "[2]; storage 4 weeks, 50° C.", "value": "No"},
      {"measurement": "Form change", "setting": "[2]; storage 4 weeks, RT", "value": "No"}
    ]}
  ]
}
